From patent US5750139A (priority 1994, dated 1998)
Read-outs that look alike come from different tables or passages of the source. Each block holds one compound with its values, some of them ahead of it.

Experiments:
[1] = intra-individual pharmacokinetics, TDS versus oral tablet, one healthy volunteer; format: in vivo, human
Method: For better comparability, some pharmacokinetic preliminary experiments were carried out on one and the same healthy volunteer (i.e. intra-individually).

[2] = GCP-complying pharmacokinetic study of TDS with 14 healthy volunteers; format: in vivo, human
[3] = cited from earlier work
[4] = diffusion/dialysis of benzopyrone from formulation through cellulose membrane (layer thickness, pore size, viscosity); format: physicochemical
Excerpt: When the same formulation was used, for example, the diffusion rate increased only by a factor of 1.6 when the pore volume was increased from 20 kD to 100 kD.

[5] = kinetics of active ingredient diffusion through the membrane in vitro; format: physicochemical
Method: The TDS to be tested were preselected by means of in vitro measurements of the dialysis of benzopyrone from the TDS investigated. For this purpose, the TDS available was stuck, on the side facing the skin, i.e. the membrane side, by means of the adhesive layer, in a dialysis apparatus and was dialyzed against an excess of a solution of polyethylene glycol 400 or against an albumin or saline solution for at least 24 h. […] The half-lives for a 50% and 95% diffusion yield (t/2 50% and t/2 95%, respectively) were calculated from the linear part of the dialysis curves. For example, three selected formulations gave the following half-lives (Table 1): […]

inflamed target tissues = conditions: in vivo
rat skin = conditions: cited from earlier work
[6] = 96 h application of a TDS: bioavailability, blood levels of benzopyrone during application and after removal
[7] = system: rat skin versus human skin; conditions: cited from earlier work
[8] = human, in vivo, topical or ocular
[9] = human, blood, topical or ocular, 200 mg

Compound: O=c1ccc2ccc(O)cc2o1 [7-hydroxybenzopyrone]
blood levels of II, TDS lower than after oral dose ([1]; TDS versus oral): 6-10 times
maximum blood concentrations of II, TDS versus oral, based on the same absorbed dose ([1]; TDS versus oral, same absorbed dose): approximately comparable
blood levels of 7-hydroxybenzopyrone, oral compared with transdermal ([1]; oral versus transdermal): substantially higher
decrease of blood levels of 7-hydroxybenzopyrone ([2]; after removal of the TDS): decreased rapidly
glucuronidation step faster than preceding oxidation reaction ([3]; liver, coupled metabolic conversion): about 3.5 times

Amount of benzopyrone diffusing within 8 h ([4]; layer thickness 0.1 mm, 20% formulation, cellulose membrane 20 kD, 2.5 cm^2): 8 mg
Amount of benzopyrone diffusing within 8 h ([4]; layer thickness 0.2 mm, 20% formulation, cellulose membrane 20 kD, 2.5 cm^2): 14 mg
Amount of benzopyrone diffusing within 8 h ([4]; layer thickness 0.4 mm, 20% formulation, cellulose membrane 20 kD, 2.5 cm^2): 14 mg
rate of dialysis of the benzopyrone ([4]; on increasing the viscosity of the formulation): considerably reduced
factor of increase of the diffusion rate ([4]; pore volume increased from 20 kD to 100 kD, same formulation): 1.6
blood levels of benzopyrone (I), transdermal higher than after oral administration ([1]; TDS versus oral): 10 times
maximum blood levels of (I), TDS higher than after oral, based on same dose absorbed per day ([1]; human, in vivo, po): 57 times
Tmax ([1]; human, in vivo, po, t max of benzopyrone (I)): 3 h
bioavailability at 48 h [1, 8]: 35%
concentration at 4 h ([2]; human, blood, topical or ocular, 4 h after removal of the TDS (200 mg)): 4.96 ng/mL
concentration at 3 h ([2]; human, blood, topical or ocular, single TDS 200 mg, application time 3 h): 23.4 ng/mL
concentration at 24 h ([2]; human, blood, topical or ocular, single TDS 200 mg, application time 24 h): 27.3 ng/mL
time to steady state of blood benzopyrone level ([2]; single TDS 200 mg): 3 h
release of benzopyrone over 96 h ([6]; TDS worn 4 days): takes place in a constant manner
concentration at 3 h [6, 9]: 2.4 ng/mL
concentration at 6 h [6, 9]: 0.8 ng/mL
concentration at 48 h [6, 9]: 5.5 ng/mL
concentration at 72 h [6, 9]: 6.1 ng/mL
concentration at 82 h [6, 9]: 8.7 ng/mL
concentration at 96 h [6, 9]: 6.6 ng/mL
bioavailability at 96 h [6, 8]: 70%
Compound: O=c1ccc2ccccc2o1 [benzopyrone, 5,6-benzo-alpha-pyrone]
dialyzable amount of benzopyrone with increasing layer thickness ([4]; 20% formulation, cellulose membrane 20 kD, 2.5 cm^2): increases with increasing layer thickness until the saturation limit of the control membrane is reached and then remains constant
kinetics of active ingredient diffusion through the membrane [5]: linear kinetics
accumulation in tissue (inflamed target tissues): preferably accumulates in inflamed target tissues
unabsorbed proportion of benzopyrone after 12 hours (rat skin; 1 g of 5% ointment over 30 cm^2, rat 1): 1.95 percent by weight
unabsorbed proportion of benzopyrone after 12 hours (rat skin; 1 g of 5% ointment over 30 cm^2, rat 2): 13.24 percent by weight
unabsorbed proportion of benzopyrone after 12 hours (rat skin; 1 g of 5% ointment over 30 cm^2, rat 3): 42.8 percent by weight
first pass metabolism in the liver ([3]; oral application): virtually quantitative
unchanged benzopyrone entering the circulation from the liver ([3]; oral application): virtually no unchanged benzopyrone
active ingredient release over total application time ([6]; 96 h application): linear

Compound: CC1(C)C(C=C(Cl)Cl)C1C(=O)OC(C#N)c1cccc(Oc2ccccc2)c1 (centres unmarked) [cypermethrin]
penetration of rat skin more readily than human skin [7]: 20 times

Compound: O=C(O)[C@H]1O[C@@H](Oc2ccc3ccc(=O)oc3c2)[C@H](O)[C@@H](O)[C@@H]1O [glucuronide (III)]
pharmacological activity ([3]; in vivo): pharmacologically inactive

Compound: COC1=CC(=O)C[C@@H](C)[C@]12Oc1c(Cl)c(OC)cc(OC)c1C2=O [griseofulvin]
penetration of rat skin more readily than human skin [7]: 14 times
